Patent US10080748B2, “Use of flap inhibitors to reduce neuroinflammation mediated injury in the central nervous system” (Bioscience Pharma Partners, LLC, priority 2014, dated 2018)

Test system: leukotriene LTC4 production
Assay: LTC4 levels in brain after rat fluid percussion injury (RP LC-MS/MS)
Assay type: in vivo
Protocol: Craniotomy and lateral fluid percussion injury (FPI) were performed using a previously validated and published procedure. Farias S, et al. J. Neurotraum, 26, 1977-1986, 2009; Frey L. C. et al. J. Neurosci. Methods 177, 267-272, 2009. Throughout the specification animals subjected to this protocol are referred to as having a TBI since this treatment protocol is a TBI model. Briefly, rats were anesthetized with 3-5% isoflurane, isosol, VEDCO Inc., St. Joseph, Mo., via nose cone and mounted in a stereotaxic head frame. A 3 millimeter (mm) craniotomy was created and centered at 3 mm caudal to bregma and 3.5 mm left of the sagittal suture, keeping the exposed dura intact. One steel support screw was embedded in the skull on the contralateral side. A Luer-Lock hub with an inside diameter of 3.5 mm was centered over the craniotomy and bonded to the skull with cyanoacrylate adhesive and capped. Dental acrylic, Snap, Parka, Inc., Edgewood, N.J., was poured around the huh and screw. After the acrylic hardened antibiotic ointment was applied around the cap and the animals were returned to their cages. The next day, approximately 15-20 hours later, animals were anesthetized with isoflurane in an induction chamber, immediately connected to the FPI apparatus, and received a 20 millisecond (ms) pulse of pressurized sterile saline at 2.7 atmospheres (atm) of pressure to simulate a moderate severity impact on the intact dural surface through the craniotomy before awakening from anesthesia. […] All animals received a subcutaneous injection of the analgesic, buprenorphine, 0.05 milligram/kilogram (mg/kg) Buprenex, prior to craniotomy, and subsequent injections every 12 hours for two days. Moistened food pellets were provided after injury, and all animals were monitored daily for well-being and weight changes.
Two groups of four rats each were subjected to FPI as described above. Four days prior to the FPI, each animal was briefly anesthetized for less than 5 minutes with 3-3.5% isoflurane and administered either NaCl 0.9%, 2 ml/kg IV (vehicle) or vinblastine sulfate 0.5 mg/kg IV in an identical volume. Neutrophil depletion was verified by complete cell blood counts (CBC) in vinblastine treated animals 4 days after administration. Both groups were euthanized by decapitation and the brain lipids extracted 1 hour after FPI. The amounts of LTC4 formed, measured by RP LC-MS/MS and normalized per milligram of protein, were compared between groups using one-way analysis of variance and the Student-Newman-Keuls test for multiple comparisons.
The indole FLAP inhibitor MK-886 was prepared at a dose of 2.5 milligram/milliliter (mg/ml), dissolved in dimethyl sulfoxide (DMSO) and then diluted with 0.9% saline to 10% DMSO. The rats were briefly anesthetized with 3-3.5% isoflurane and either […] at a dose of 6 mg/kg or vehicle was administered intravenously (IV) by tail vein injection. All animals were allowed to wake before undergoing additional procedures.
Cortical and hippocampal regions from ipsilateral and contralateral hemispheres were collected in 4 ml of 80% methanol, homogenized with a Dounee homogenizer, and internal standards were added to the homogenates. Protein content was measured using bicinchoninic acid assay (BCA) for protein to normalize lipid levels to the amount of tissue. Samples were centrifuged and the supernatant was collected. Samples were diluted to a final methanol concentration of lower than 15% and then the lipids were extracted using a solid phase extraction cartridge, Strata C18-E, 100 mg/1 ml, Phenomenex, Torrence Calif. The eluate, 1 ml of methanol, was dried down and reconstituted in 70 microliters (μl) of High Performance Liquid Chromotography (HPLC) solvent A, which is 8.3 mM acetic acid buffered to pH 5.7 with NH4OH, plus […] of solvent B, which is acetonitrile/methanol, 65/35, v/v. […]

[1] = MK-886 6 mg/kg IV 30 minutes prior to TBI, 1 hour after TBI
[2] = MK-886 6 mg/kg IV 30 minutes prior to TBI, measured 1 hour after TBI
[3] = single dose 15 minutes after TBI

SMILES: CC(C)c1ccc2c(c1)c(SC(C)(C)C)c(CC(C)(C)C(=O)O)n2Cc1ccc(Cl)cc1 [MK-886, 1-[(4-Chlorophenyl)methyl]-3-[(1,1-dimethylethyl)thio]-α,α-dimethyl-5-(1-methylethyl)-1H-Indole-2-propanoic acid]
- LTC4 levels lower than vehicle-treated injured animals, contralateral right hemisphere [1]: 64%
- LTC4 levels lower than vehicle-treated injured animals, ipsilateral left hemisphere [1]: 85%
- LTC4 level, contralateral right hemisphere [2]: 2.6+/−0.80 pg/mg protein
- LTC4 level, ipsilateral left hemisphere [2]: 3.39+/−0.42 pg/mg protein
- LTC4 level, ipsilateral cortex (MK-886-treated injured rats): undetectable
- LTC4 level, ipsilateral hippocampus (MK-886-treated injured rats): undetectable
- LTC4 level, contralateral hemisphere [3]: below the detectable threshold
- LTC4 level, ipsilateral hemisphere [3]: below the detectable threshold
